Assays:
[1] = test system: isolated rat atria; test: Bioassay for positive inotropic effect on isolated rat atria; assay type: cell-based
From the text: The sea anemones are homogenized and extracted with water or with a solution of water and a water miscible organic solvent. The crude extract, containing anthopleurin-B, is subjected to gel filtration to give a forty-fold increase in purity of anthopleurin-B. Alternatively, semipermeable membranes may be used to accomplish the results obtained by gel filtration. Cation exchange chromatography provides an excellent separation of anthopleurin-B in a purity of about 30-40% depending on the particular collection of anemones. […] To obtain analytically pure salt-free material the above material is further purified by gel filtration, cation-exchange chromatography and gel adsorption chromatography. All the separation procedures in the present invention are monitored by bioassay using the isolated rat atria for determination of positive inotropic effect using the procedure described in the section headed Bioassay.
Bioassays of the solutions containing anthopleurin-B are performed on isolated atria of rat hearts. […]
The spontaneously beating atrial preparation is connected by a thin silk thread to a force-displacement transducer (Grass Model FT.03), and the contractile movements are recorded on a six-channel polygraph Grass Model 7. […]

[2] = Solubility in deionized water; assay type: physicochemical
[3] = Stability (pH, storage); assay type: physicochemical
[4] = Isoelectric focusing; assay type: physicochemical
From the text: For the purpose of obtaining electrophoretic and amino acid analysis the anthopleurin-B obtained in Example 1, below, was rechromatographed on CM Sephadex C-25, Sephadex G-50 and G-10 according to the process set forth in Example 1, Steps c, d and e, respectively. The doubly purified material was subject to electrophoretic analysis using commercially available pre-cast 12% acrylamide gels and matched buffer systems obtained from Bio.Rad Laboratories, 32nd and Griffin, Richmond, California.
Isoelectric focusing gave the isoelectric point at a pH=9.05. Disc gel electrophoresis with 12% polyacrylamide gel at pH 3.6 gave an Rf value of 0.64 versus methyl green tracking dye. […] Sodium dodecyl sulfate (SDS) disc gel electrophoresis using a 10% gel indicated a m.w. of about 5,200 after incubation with dithioerythritol, using RNase A and pancreatic trypsin inhibitor (PTI) for comparison. The molecular weight is so low that these values are only approximate. […] Acid hydrolysis indicated the approximate following amino acid composition: (Asp or Asn)5, Thr1 Ser4, (Glu or Gln)1, Pro5, Gly7, Ala2, (Cys/2)6 Val1, Ile2, Leu2, Tyr1, Phe1, Lys3, His2, Arg2, Trp2.

anthopleurin-B [AP-B]
potency in positive inotropic effect relative to ouabain ([1]; as potent as ouabain): 200-1000 x
chronotropic effect ([1]; isolated rat atria, beat rate): does not show any chronotropic effect
solubility [2]: very soluble
storage stability ([3]; -20° C. for a year, as lyophilized fraction C or fraction G): no signs of deterioration
stability versus pH ([3]; neutral and lower pH values): relatively stable
stability of dry form ([3]; sterile powdered lyophilized, room temperature): stable at room temperature
isoelectric point [4]: 9.05 pH

Reference: US4166113A, “Cardiotonic agent” (University of Hawaii, priority 1978, dated 1979)
